Source: patent publication US11414450B1, “Aminoglycosides and uses thereof” (REVAGENIX, INC., priority 2017, dated 2022)
≈ marks a conversion by molar mass, not a printed value.

Tests used:
Format in all cases: cell-based
E. coli efflux parent = assay: MIC broth microdilution, E. coli efflux parent strain; conditions: for Geometric Mean MIC values, E. coli efflux parent: Table 2
Method: (§1) Minimum inhibitory concentrations for the example compounds herein are determined by the broth microdilution method in accordance with the Clinical and Laboratory Standards Institute (CLSI) guidelines. In brief, organism suspensions are adjusted to a 0.5 McFarland standard to yield a final inoculum between 3×10^5 and 7×10^5 colony-forming units (CFU)/mL. Compound dilutions and inocula are made in sterile, cation adjusted Mueller-Hinton Broth (Beckton Dickinson). The inoculum is prepared by suspension of a colony from an agar plate that is prepared the previous day. Bacteria are suspended in sterile saline and added to each assay plate to obtain a final concentration of 5×10^5 CFU/mL. An inoculum volume of 100 μL is added to wells containing 100 μL of broth with 2-fold serial dilutions of the compound. All inoculated microdilution trays are incubated in ambient air at 35° C. for 18-24 hours. Following incubation, the lowest concentration of the compound that prevents visible growth (OD 600 nm<0.05) is recorded as the MIC. […] Performance of the assay is monitored by the use of laboratory quality-control strains and a compound with a defined MIC spectrum (such as levofloxacin), in accordance with CLSI guidelines. Compounds are tested against multiple microbiologic panels. Panels include: 1) a multi-species primary screening panel that includes multiple defined AG-R mechanisms; 2) a panel of isogenic strains carrying different common mechanisms of AG-R that allows characterization of the SAR for AMEs, RMTs, and entry and efflux resistance mechanisms; and 3) panels of recent clinical isolates selected from Phase 3 studies and ongoing global surveillance.

[1] = system: E. coli isogenic strain empty vector; assay: MIC broth microdilution, E. coli isogenic strain, empty vector; conditions: for Geometric Mean MIC values, E. coli isogenic strains, empty vector: Table 2
Method: as §1

[2] = system: E. coli isogenic strain nmpA; assay: MIC broth microdilution, E. coli isogenic strain nmpA; conditions: for Geometric Mean MIC values, E. coli isogenic strains, nmpA: Table 2
Method: as §1

[3] = system: E. coli isogenic strain ant(4′)-Ia; assay: MIC broth microdilution, E. coli isogenic strain ant(4′)-Ia; conditions: for Geometric Mean MIC values, E. coli isogenic strains, ant(4′)-Ia: Table 2
Method: as §1

[4] = system: E. coli isogenic strain aph(3′)-Ia; assay: MIC broth microdilution, E. coli isogenic strain aph(3′)-Ia; conditions: for Geometric Mean MIC values, E. coli isogenic strains, aph(3′)-Ia: Table 2, aph(3′)-Ia has activity at both the 3′-hydroxy and 5″-hydroxy positions
Method: as §1

[5] = system: E. coli isogenic strain aph(3′)-II; assay: MIC broth microdilution, E. coli isogenic strain aph(3′)-II; conditions: for Geometric Mean MIC values, E. coli isogenic strains, aph(3′)-II: Table 2
Method: as §1

E. coli ATCC 25922 = assay: Minimum inhibitory concentration (broth microdilution, CLSI), E. coli ATCC 25922; conditions: for Geometric Mean MIC values, E. coli ATCC 25922: Table 2
Method: as §1

[6] = system: E. coli isogenic strain armA; assay: MIC broth microdilution, E. coli isogenic strain armA; conditions: for Geometric Mean MIC values, E. coli isogenic strains, armA: Table 2
Method: as §1

[7] = system: E. coli Δefflux (tolC efflux pump knocked-out); assay: MIC broth microdilution, E. coli Δefflux strain (tolC knocked out)
Method: as §1

[8] = system: E. coli isogenic strain aac(6′)-Ib; assay: MIC broth microdilution, E. coli isogenic strain aac(6′)-Ib; conditions: for Geometric Mean MIC values, E. coli isogenic strains, aac(6′)-Ib: Table 2
Method: as §1

Structure (SMILES): CCC(N)C1CCC(N)C(OC2C(N)CC(N)C(O)C2OC2OC(CO)C(OC3OC(CN)C(O)C(O)C3N)C2O)O1 (centres unmarked) [drawing 860]
- Geometric Mean MIC values, E. coli efflux parent (E. coli efflux parent): 1.4 µg/mL
- Geometric Mean MIC values, E. coli isogenic strains, empty vector [1]: 1 µg/mL
- Geometric Mean MIC values, E. coli isogenic strains, nmpA [2]: >64 µg/mL
- Geometric Mean MIC values, E. coli isogenic strains, ant(4′)-Ia [3]: 1 µg/mL
- Geometric Mean MIC values, E. coli isogenic strains, aph(3′)-Ia [4]: >64 µg/mL
- Geometric Mean MIC values, E. coli isogenic strains, aph(3′)-II [5]: 1 µg/mL
- Geometric Mean MIC values, E. coli ATCC 25922 (E. coli ATCC 25922): 2 µg/mL
- Geometric Mean MIC values, E. coli isogenic strains, armA [6]: 3.2 µg/mL
- Geometric Mean MIC values, E. coli Δefflux ([7]; Table 2): 0.71 µg/mL
- Geometric Mean MIC values, E. coli isogenic strains, aac(6′)-Ib [8]: 1.3 µg/mL

Structure (SMILES): NCC1OC(OC2C(CO)OC(OC3C(O)C(N)CC(N)C3OC3OC(CN)C(O)C(F)C3O)C2O)C(N)C(O)C1O (centres unmarked) [drawing 867]
- Geometric Mean MIC values, E. coli efflux parent (E. coli efflux parent): 1.4 µg/mL
- Geometric Mean MIC values, E. coli isogenic strains, empty vector [1]: 2 µg/mL
- Geometric Mean MIC values, E. coli isogenic strains, nmpA [2]: >64 µg/mL
- Geometric Mean MIC values, E. coli isogenic strains, ant(4′)-Ia [3]: 64 µg/mL
- Geometric Mean MIC values, E. coli isogenic strains, aph(3′)-Ia [4]: 64 µg/mL
- Geometric Mean MIC values, E. coli isogenic strains, aph(3′)-II [5]: 1.4 µg/mL
- Geometric Mean MIC values, E. coli ATCC 25922 (E. coli ATCC 25922): 2 µg/mL
- Geometric Mean MIC values, E. coli isogenic strains, armA [6]: 2.8 µg/mL
- Geometric Mean MIC values, E. coli Δefflux ([7]; Table 2): 1 µg/mL
- Geometric Mean MIC values, E. coli isogenic strains, aac(6′)-Ib [8]: >64 µg/mL

Structure (SMILES): NC[C@@H]1CC[C@@H](N)[C@@H](O[C@@H]2[C@@H](N)[C@H](O)[C@@H](N)[C@H](O)[C@H]2O[C@@H]2O[C@H](CO)[C@@H](O[C@H]3O[C@@H](CN)[C@@H](O)[C@H](O)[C@H]3N)[C@H]2O)O1 [drawing 888]
- MIC (E. coli efflux parent; Escherichia coli, E. coli efflux parent strain, read-out: Geometric Mean MIC values, E. coli efflux parent): 0.5 µg/mL (≈ 0.835 µM)
- MIC ([1]; Escherichia coli, read-out: Geometric Mean MIC values, E. coli isogenic strains empty vector): 0.5 µg/mL (≈ 0.835 µM)
- MIC ([2]; Escherichia coli, read-out: Geometric Mean MIC values, E. coli isogenic strains npmA): > 64 µg/mL
- MIC ([3]; Escherichia coli, read-out: Geometric Mean MIC values, E. coli isogenic strains ant(4′)-Ia): 0.5 µg/mL (≈ 0.835 µM)
- MIC ([4]; Escherichia coli, read-out: Geometric Mean MIC values, E. coli isogenic strains aph(3′)-Ia): > 64 µg/mL
- MIC ([5]; Escherichia coli, read-out: Geometric Mean MIC values, E. coli isogenic strains aph(3′)-II): 0.5 µg/mL (≈ 0.835 µM)
- MIC (E. coli ATCC 25922; Escherichia coli, ATCC25922, E. coli ATCC 25922, broth microdilution, read-out: Geometric Mean MIC values, E. coli ATCC 25922): 1 µg/mL (≈ 1.67 µM)
- MIC ([6]; Escherichia coli, read-out: Geometric Mean MIC values, E. coli isogenic strains armA): 4 µg/mL (≈ 6.68 µM)
- Geometric Mean MIC values, E. coli Δefflux ([7]; E. coli Δefflux): 0.5 µg/mL
- MIC ([8]; Escherichia coli, read-out: Geometric Mean MIC values, E. coli isogenic strains aac(6′)-Ib): 16 µg/mL (≈ 26.7 µM)

Structure (SMILES): NCC1CCC(N)C(OC2C(N)CC(N)C(O)C2OC2OC(CO)C(OC3OC(CN)C(O)C(O)C3N)C2O)O1 (centres unmarked) [drawing 856, reference compound]
- Geometric Mean MIC values, E. coli efflux parent (E. coli efflux parent): 0.87 µg/mL
- Geometric Mean MIC values, E. coli isogenic strains, empty vector [1]: 0.61 µg/mL
- Geometric Mean MIC values, E. coli isogenic strains, nmpA [2]: >64 µg/mL
- Geometric Mean MIC values, E. coli isogenic strains, ant(4′)-Ia [3]: 0.5 µg/mL
- Geometric Mean MIC values, E. coli isogenic strains, aph(3′)-Ia [4]: 64 µg/mL
- Geometric Mean MIC values, E. coli isogenic strains, aph(3′)-II [5]: 0.35 µg/mL
- Geometric Mean MIC values, E. coli ATCC 25922 (E. coli ATCC 25922): 1.1 µg/mL
- Geometric Mean MIC values, E. coli isogenic strains, armA [6]: 0.74 µg/mL
- Geometric Mean MIC values, E. coli Δefflux ([7]; Table 2): 0.87 µg/mL
- Geometric Mean MIC values, E. coli isogenic strains, aac(6′)-Ib [8]: 5.7 µg/mL

Structure (SMILES): NCC1OC(OC2C(CO)OC(OC3C(O)C(N)CC(N)C3OC3OC(CN)C(F)(F)C(O)C3N)C2O)C(N)C(O)C1O (centres unmarked)
- Geometric Mean MIC values, E. coli efflux parent (E. coli efflux parent): 2 µg/mL
- Geometric Mean MIC values, E. coli isogenic strains, empty vector [1]: 1.4 µg/mL
- Geometric Mean MIC values, E. coli isogenic strains, nmpA [2]: 64 µg/mL
- Geometric Mean MIC values, E. coli isogenic strains, ant(4′)-Ia [3]: 1 µg/mL
- Geometric Mean MIC values, E. coli isogenic strains, aph(3′)-Ia [4]: >64 µg/mL
- Geometric Mean MIC values, E. coli isogenic strains, aph(3′)-II [5]: 4 µg/mL
- Geometric Mean MIC values, E. coli ATCC 25922 (E. coli ATCC 25922): 2 µg/mL
- Geometric Mean MIC values, E. coli isogenic strains, armA [6]: 4 µg/mL
- Geometric Mean MIC values, E. coli Δefflux ([7]; Table 2): 1 µg/mL
- Geometric Mean MIC values, E. coli isogenic strains, aac(6′)-Ib [8]: 16 µg/mL
